Data as given in the NIST ThermoML archive (doi:10.1021/je050389b).

Experiment: xn = mol fraction of the nth substance listed
Conditions: Liquid; for viscosity: 100.5 kPa; for mass density: 101 kPa

CCOC(=O)c1ccccc1 [ethyl benzoate] + CCO
Conditions	mass density, 288.15 K [kg/m3]	mass density, 298.15 K [kg/m3]	mass density, 308.15 K [kg/m3]	mass density, 318.15 K [kg/m3]	viscosity, 288.15 K [mPa·s]	viscosity, 298.15 K [mPa·s]	viscosity, 308.15 K [mPa·s]	viscosity, 318.15 K [mPa·s]
x1 = 0.05	824.59	815.81	806.92	797.88	1.342	1.108	0.926	0.778
x1 = 0.1	851.02	842.08	833.03	823.84	1.36	1.123	0.938	0.793
x1 = 0.15	874.07	865.01	855.84	846.52	1.388	1.148	0.959	0.812
x1 = 0.2	894.37	885.22	875.95	866.54	1.425	1.176	0.984	0.833
x1 = 0.25	912.35	903.11	893.77	884.29	1.465	1.208	1.012	0.857
x1 = 0.3	928.37	919.07	909.68	900.15	1.51	1.244	1.042	0.881
x1 = 0.35	942.79	933.45	924.02	914.45	1.557	1.282	1.072	0.908
x1 = 0.4	955.85	946.47	937	927.41	1.607	1.321	1.105	0.935
x1 = 0.45	967.71	958.3	948.81	939.2	1.661	1.363	1.138	0.964
x1 = 0.5	978.51	969.07	959.57	949.95	1.715	1.405	1.173	0.993
x1 = 0.55	988.43	978.97	969.46	959.84	1.773	1.449	1.209	1.024
x1 = 0.6	997.48	988.07	978.54	968.93	1.833	1.496	1.247	1.055
x1 = 0.65	1005.91	996.46	986.94	977.35	1.895	1.544	1.286	1.089
x1 = 0.7	1013.67	1004.22	994.7	985.12	1.959	1.595	1.326	1.124
x1 = 0.75	1020.94	1011.5	1002.01	992.45	2.028	1.649	1.37	1.159
x1 = 0.8	1027.63	1018.2	1008.72	999.19	2.099	1.705	1.416	1.198
x1 = 0.85	1033.99	1024.57	1015.13	1005.64	2.178	1.767	1.465	1.241
x1 = 0.9	1039.87	1030.48	1021.06	1011.62	2.267	1.836	1.521	1.288
x1 = 0.95	1045.45	1036.09	1026.72	1017.33	2.373	1.917	1.582	1.335
x1 = 1	1050.78	1041.42	1032.07	1022.73	2.444	1.971	1.624	1.368

CCCCCC(=O)OCC [ethyl hexanoate] + CCO
Conditions	mass density, 288.15 K [kg/m3]	mass density, 298.15 K [kg/m3]	mass density, 308.15 K [kg/m3]	mass density, 318.15 K [kg/m3]	viscosity, 288.15 K [mPa·s]	viscosity, 298.15 K [mPa·s]	viscosity, 308.15 K [mPa·s]	viscosity, 318.15 K [mPa·s]
x1 = 0.05	804.18	795.44	786.59	777.58	1.241	1.031	0.866	0.732
x1 = 0.1	812.99	804.11	795.12	785.96	1.182	0.982	0.829	0.71
x1 = 0.15	820.54	811.53	802.42	793.14	1.139	0.948	0.806	0.691
x1 = 0.2	827.14	818.05	808.85	799.48	1.106	0.926	0.789	0.676
x1 = 0.25	832.89	823.72	814.44	805.01	1.082	0.909	0.777	0.667
x1 = 0.3	837.94	828.72	819.38	809.89	1.062	0.897	0.769	0.662
x1 = 0.35	842.47	833.2	823.82	814.29	1.051	0.889	0.763	0.659
x1 = 0.4	846.5	837.18	827.76	818.2	1.045	0.883	0.759	0.657
x1 = 0.45	850.15	840.82	831.37	821.8	1.039	0.88	0.758	0.657
x1 = 0.5	853.47	844.11	834.63	825.05	1.037	0.88	0.759	0.658
x1 = 0.55	856.51	847.12	837.64	828.05	1.038	0.882	0.761	0.662
x1 = 0.6	859.28	849.88	840.39	830.79	1.039	0.888	0.765	0.665
x1 = 0.65	861.84	852.43	842.94	833.34	1.045	0.892	0.767	0.668
x1 = 0.7	864.22	854.82	845.33	835.75	1.048	0.896	0.773	0.674
x1 = 0.75	866.43	857.02	847.54	837.97	1.054	0.902	0.779	0.68
x1 = 0.8	868.48	859.09	849.63	840.08	1.064	0.91	0.786	0.686
x1 = 0.85	870.41	861.04	851.59	842.07	1.073	0.919	0.794	0.694
x1 = 0.9	872.22	862.86	853.45	843.97	1.086	0.929	0.803	0.703
x1 = 0.95	873.99	864.66	855.27	845.83	1.1	0.94	0.815	0.712
x1 = 1	875.64	866.29	856.91	847.5	1.102	0.94	0.814	0.711
